In patent publication US11273172B2, “Synergistic combination of oligonucleotides and chemotherapeutic for treating cancer” (THE BOARD OF TRUSTEES OF THE UNIVERSITY OF ILLINOIS, priority 2017, dated 2022):
Values joined by “and” are separate entries in the source; they are usually repeats but may differ in a detail not shown here. Equal entries are not always repeated.

How the values were obtained:
Experiment in all cases: MTT cell death assay, chemotherapeutic with and without MADD siRNA knockdown
Type in all cases: cell-based
[1] = system: AGS gastric adenocarcinoma cells; conditions: siRNA 10 nM
Protocol: (§1) Cells are cultured and maintained at 37° C. in a humidified atmosphere containing 5% CO2 as described above. […] After 12-18 hours (Day 1), cells are transfected with Scramble or MADD siRNA at 10 nM concentration. The sequences of siRNAs (double-stranded) used are:
(§2) On Day 4, when cells are properly adhered and retained their shape in 96-well plates, drugs are added. All drugs are diluted in complete media on the same day prior to the addition to the cells. In untreated cells, media is replaced with complete media. Two hundred μl volume of media (with or without drugs) is used for the drug treatment assay. Plates are incubated 24 hours, 48 hours and 72 hours at 37° C. in humidified CO2 incubator.
(§3) An MTT assay is performed to determine relative survival after drug treatment as described above. MTT (3-[4,5-Dimethylthiazol-2-yl]-2,5-diphenyltetrazolium bromide; Thiazolyl blue) is purchased from Sigma Aldrich (Cat number: M5655). […] Ten μl of MTT solution is added per well of 96-well plate. Plates are incubated for 2 hours at 37° C. in the humidified CO2 incubator. After 2 hours, media is aspirated using vacuum inside the biosafety hood. Purple colored crystals formed in viable cells are dissolved by adding 100 μl of Dimethyl sulfoxide (Thermo Fisher Scientific; Cat number D128-500) Plates are kept on shaker for 10 minutes for compete dissolution of crystals and absorbance is recorded at 595 nm using Bio-Rad iMark microplate reader. Data is analyzed in MICROSOFT EXCEL® software. Relative survival is calculated with respect to absorbance of control (untreated cells) to determine the effect of transfection as well as combination treatment.
(§4) Each data set takes into account any spontaneous cell death which is observed upon transfection with Scramble siRNA; the amount of spontaneous cell death from Scramble siRNA transfection (baseline) is subtracted from the amount of cell death observed in each siRNA transfection reaction to yield a Net Percent (Net %) cell death after accounting for Scrambled siRNA-induced cell death.
(§5) Cells are cultured and maintained at 37° C. in a humidified atmosphere containing 5% CO2 as described above. […] After 12-18 hours (Day 1), cells are transfected with Scramble or MADD siRNA at 10 nM concentration. The sequences of siRNAs (double stranded) used are:
as §3, with “D128-500).” for “D128-500)”
as §2, with “24 h,” for “24 hours,”, “48 h” for “48 hours”

[2] = system: PLC/PRF/5 hepatic cancer cells; conditions: siRNA 10 nM
Protocol: as §1, §2, §3, §4, §5
as §3, with “D128-500).” for “D128-500)”
as §2, with “24 h,” for “24 hours,”, “48 h” for “48 hours”

[3] = system: HTH7 thyroid cancer cells; conditions: siRNA 10 nM
Protocol: as §5, §2, §3, §4

[4] = system: JIMT1 breast cancer cells; conditions: Doxorubicin 0.075 μM, siRNA 10 nM, 24 hours post Doxorubicin treatment
Protocol: (§6) Cells are cultured and maintained at 37° C. in a humidified atmosphere containing 5% CO2 as described above. On Day 0, Cells are seeded in […] tissue culture dishes (Corning; Cat Number: 353003) to attain 60-70% confluence. In parallel, cells are also seeded in one 96-well plate (Corning; Cat number: 353072) for analysis of survival before reseeding. After 12-18 hours (Day 1), cells are transfected with Scramble or MADD siRNA at 10 nM concentration. The sequences of siRNAs (double stranded) used are:
as §2, with “added. Doxorubicin was added at a working concentration of 5.0 nM, 9.375 nM, 0.075 μM, 0.25 μM, 0.5 μM, and 0.8 μM.” for “added.”
(§7) An MTT assay is performed to determine relative survival after drug treatment as described above. MTT (3-[4,5-Dimethylthiazol-2-yl]-2,5-diphenyltetrazolium bromide; Thiazolyl blue) is purchased from Sigma Aldrich (Cat number: M5655). MTT is dissolved in sterile DPBS at the concentration of 5 mg/ml and filtered through […] syringe filter (Corning; Cat number: 431220). Ten μl of MTT solution is added per well of 96-well plate. Plates are incubated for 2 hours at 37° C. in the humidified CO2 incubator. After 2 hours, media is aspirated using vacuum inside the biosafety hood. Purple colored crystals formed in viable cells are dissolved by adding 100 μl of Dimethyl sulfoxide (Thermo Fisher Scientific; Cat number D128-500). Plates are kept on shaker for 10 minutes for compete dissolution of crystals and absorbance is recorded at 595 nm using Bio-Rad iMark microplate reader. Data is analyzed in MICROSOFT EXCEL® software. Relative survival is calculated with respect to absorbance of control (untreated cells) to determine the effect of transfection as well as combination treatment.
as §4

[5] = system: N87 gastric carcinoma cells; conditions: Doxorubicin 0.8 μM, siRNA 10 nM, 72 hours post Doxorubicin treatment
Protocol: as §6
as §2, with “added. Doxorubicin was added at a working concentration of 5.0 nM, 9.375 nM, 0.075 μM, 0.25 μM, 0.5 μM, and 0.8 μM.” for “added.”
as §7, §4

[6] = Sorafinib 0.625 μM, 48 hours post Sorafinib treatment
[7] = Sorafinib 0.375 μM, 24 hours post Sorafinib treatment
[8] = 5-flurouracil 25 μM, 72 hours post 5-flurouracil treatment
[9] = Gemcitabine 1 μM, 48 hours post Gemcitabine treatment
[10] = TRAIL 6.25 ng/ml, 72 hours post TRAIL treatment
[11] = Cisplatin 1.875 μM, 24 hours post Cisplatin treatment
[12] = Gemcitabine 0.03125 μM, 24 hours post Gemcitabine treatment
[13] = TRAIL 50 ng/ml, 24 hours post TRAIL treatment
[14] = Cisplatin 1.25 μM, 72 hours post Cisplatin treatment
[15] = Cisplatin 5 μM, 24 hours post Cisplatin treatment

Row | Molecule | Net % cell death after accounting for Scrambled siRNA [1, 6] | Observed % Cell death [1, 6] [%] | Net % cell death after accounting for Scrambled siRNA [2, 7] | Observed % Cell death [2, 7] [%] | Observed % Cell death [1, 8] [%] | Net % cell death after accounting for Scrambled siRNA [1, 9] | Observed % Cell death [1, 9] [%] | Observed % Cell death [1, 10] [%] | Net % cell death after accounting for Scrambled siRNA [2, 11] | Observed % Cell death [2, 11] [%] | Net % cell death after accounting for Scrambled siRNA [2, 12] | Observed % Cell death [2, 12] [%] | Net % cell death after accounting for Scrambled siRNA [2, 13] | Observed % Cell death [2, 13] [%] | Net % cell death after accounting for Scrambled siRNA [3, 14] | Observed % Cell death [3, 14] [%] | Net % cell death after accounting for Scrambled siRNA [3, 15] | Observed % Cell death [3, 15] [%] | Observed % Cell death [4] [%] | Observed % Cell death [5] [%] | other results
1 | CNC(=O)c1cc(Oc2ccc(NC(=O)Nc3ccc(Cl)c(C(F)(F)F)c3)cc2)ccn1 [Sorafinib] | 12% | 12 | 13% | 13 | – | – | – | – | – | – | – | – | – | – | – | – | – | – | – | – | –
2 | MADD siRNA: siRNA targeting exon 13L of the MADD splice variant of the IG20 gene; SEQ ID NO: 4, 5′-GAUUGUCAUAGAUUCGCCGTT-3′ (chemistry not given here) | 5% and 14 − 9 = 5% | 14 | 20% and 25 − 5 = 20% | 25 | 20 | 5% and 14 − 9 = 5% | 14 | 20 | 20% and 25 − 5 = 20% | 25 | 20% and 25 − 5 = 20% | 25 | 20% and 25 − 5 = 20% | 25 | 54% and 54 − 0 = 54% | 54 | 6% and 6 − 0 = 6% | 6 | 59 | 21 | –
3 | Scrambled siRNA: non-specific Scramble siRNA, negative control; SEQ ID NO: 5, 5′-UUGCUAAGCGUCGGUCAAUTT-3′ (chemistry not given here) | 9 − 9 = 0% | 9 | 5 − 5 = 0% | 5 | 17 | 9 − 9 = 0% | 9 | 17 | 5 − 5 = 0% | 5 | 5 − 5 = 0% | 5 | 5 − 5 = 0% | 5 | 0 − 0 = 0% | 0 | 0 − 0 = 0% | 0 | 33 | 14 | Net % cell death after accounting for Scrambled siRNA [1, 8]: 17 − 17 = 0%; Net % cell death after accounting for Scrambled siRNA [1, 10]: 17 − 17 = 0%; Net % cell death after accounting for Scrambled siRNA [4]: 33 − 33 = 0%; Net % cell death after accounting for Scrambled siRNA [5]: 14 − 14 = 0%
4 | TRAIL: cytotoxic protein which induces apoptosis in tumor cells, but not in normal cells (protein, UniProt P50591 1-281, looked up) Tumor necrosis factor ligand …: MAMMEVQGGPSLGQTCVLIVIFTVLLQSLCVAVTYVYFTNELKQMQDKYSKSGIACFLKEDDSYWDPNDEESMNSPCWQVKWQLRQLVRKMILRTSEETISTVQEKQQNISPLVRERGPQRVAAHITGTRGRSNTLSSPNSKNEKALGRKINSWESSRSGHSFLSNLHLRNGELVIHEKGFYYIYSQTYFRFQEEIKENTKNDKQMVQYIYKYTSYPDPILLMKSARNSCWSKDAEYGLYSIYQGGIFELKENDRIFVSVTNEHLIDMDHEASFFGAFLVG | – | – | – | – | – | – | – | 7 | – | – | – | – | 0% | 0 | – | – | – | – | – | – | Net % cell death after accounting for Scrambled siRNA [1, 10]: 7%
